Measured values reported in PMC9421656, “Beyond Retigabine: Design, Synthesis, and Pharmacological Characterization of a Potent and Chemically Stable Neuronal Kv7 Channel Activator with Anticonvulsant Activity” (Journal of Medicinal Chemistry, 2022).
Values joined by “and” are separate entries in the source; they are usually repeats but may differ in a detail not shown here. Equal values may be shown once. “Also recorded” adds a separate entry of the source.

Experiments:
[1] = Photostability under UV-visible light with HPLC analysis (degradation, dimer formation); type: physicochemical; conditions: for % Degradation (3h, UV): 10 μM, buffered aqueous solution pH 7.4, 3 h UV-visible light, ± SD; for Dimers Formation / Photodegradation (in words): 3 h UV-visible light; for Dimers Formation: HPLC at 550 nm; for Photodegradation (in words): compared with retigabine
From the text: Two different HPLC wavelengths were utilized: (a) […] to evaluate the decreased concentration of the starting molecule; (b) 550 nm to investigate the formation of phenazine/phenazinium dimers, as previously described.[10] Unfortunately, dimer formation was detected for all tested compounds, except for 23 and 24. […]. […]. The first group consisted of N4 (−X- in Table 2) substituted analogues, in which the tertiary amine is unavailable for the formation of phenazine dimers (compounds 25–28). […]. The third group included derivatives replacing hydrogen atoms with electron-withdrawing fluorine atoms at position R2 of the benzene-1,2,4-triamine core scaffold (compounds 59, 60), a strategy likely reducing the reactivity of N2 and N4. […].
Photostability experiments were performed by dissolving compounds in DMSO and then diluting in buffered aqueous solutions at pH 7.4 to a final concentration of 10 μM. 1 cm quartz cells, filled with the abovementioned solutions, were irradiated by a UV lamp (UV Consulting TQ 150 equipped with Duran 50 sleeve and 150 W power supply unit, Peschl, Germany) at a fixed distance of 20 cm from the UV source. Control samples were maintained at 37 °C, wrapped with aluminum foil to avoid light exposure, and used to assess chemical stability of the compounds. At predetermined intervals, aliquots were withdrawn and analyzed by UHPLC in order to assess the concentration decrease of the starting materials and the presence of the dimers usually formed by retigabine.
Photostability and chemical stability experiments were carried out on a Kinetex^TM C18 150 × 2.1 mm × 2.6 μm (100 Å) column (Phenomenex, Bologna, Italy). The optimal mobile phase consisted of 0.1% TFA/H2O v/v (A) and 0.1% TFA/ACN v/v (B). Analysis was performed in gradient elution as follows: 0–13.0 min, 5–65% B; 13–14.0 min, 65–95% B; 14–15.0 min, isocratic to 95% B; 15–15.01 min, 95–5% B; then 3 min for column re-equilibration. The flow rate was 0.5 mL min^–1. The column oven temperature was set to 45 °C. The injection volume was 7 μL of sample. The following PDA parameters were applied: sampling rate, 12.5 Hz; detector time constant, 0.160 s; cell temperature, 40 °C. Data acquisition was set in the range 190–800 nm, and chromatograms were monitored at 224 nm to assess the decrease in concentration of the starting material, while a wavelength of 550 nm was used to eventually detect dimerization.

[2] = In vitro metabolism assay (S9 fraction of human liver microsomes); type: in vitro ADME; conditions: human
Method: To further explore the metabolic stability of compounds 25, 26, and 60 in a biologically relevant model, they were tested in an in vitro metabolism assay (S9 fraction of human liver microsomes) using retigabine as a comparator.[33],[34] In this assay, a very small extent (4.7 ± 0.5%) of retigabine undergoes phase I metabolism, whereas a larger fraction (17.4 ± 1.2%) was metabolized in phase II reactions, as previously reported.[35]

Kv7.2/Kv7.3 channels [3] = molecular target: T1, Kv7.2/Kv7.3 channels (Homo sapiens, UniProt O43525+O43526); assay: FluxOR thallium-sensitive fluorescence-based assay in CHO cells stably expressing Kv7.2 + Kv7.3; type: cell-based; design: expressed in transfected cells; conditions: for Kv7 opening activity (in words) / Slope of the fluorescent signal at 10 μM: 10 μM; for Kv7 opening activity (in words): compared with retigabine or the reference compound of the subseries; for Slope of the fluorescent signal at 10 μM: initial slope of FluxOR signal between 5 and 15 s, mean ± SEM
Method: While assay robustness in Kv7.2/Kv7.3-expressing cells was high (Z′ factor > 0.5),[27] the Z′ factor calculated in CHO cells expressing Kv7.2 subunits alone was <0.5; thus, all subsequent pharmacological screens were performed in Kv7.2/Kv7.3-expressing cells. […] The Kv7.2/Kv7.3-stable cell line was generated using a plasmid-based PiggyBac transposon system that enables genomic integration of multiple independent transposons containing distinct cDNA sequences. cDNAs for KCNQ2 and KCNQ3 genes (encoding for Kv7.2 and Kv7.3, respectively) were cloned into two different PiggyBac expression vectors (pB-CMV-MCS-EF1α-RedPuro, System Biosciences), and these two plasmids, together with a plasmid encoding for the transposase (System Biosciences), were transfected into CHO cells using Lipofectamine 2000 (Invitrogen) as indicated in the protocol provided by the seller company.
The selected clone stably expressing Kv7.2/Kv7.3 channels was grown in DMEM supplemented with 10% FBS, 50 U/mL Pen-Strep, 2 mM L-glutamine (all purchased from Gibco), and 4 μg/mL puromycin (Sigma) in a humidified atmosphere at 37 °C with 5% CO2. […] A kinetic dispense microplate reader (FLUOstar Optima) was used to read the plate, setting the excitation filter at 485 nm and the emission filter at 520 nm; “Stimulus buffer” prepared as indicated in the protocol was automatically added to wells after 5 s of recording; the plate was read every 1 s, for 50 s. The results were analyzed using Optima Data Analysis and Microsoft Excel.
Only experiments resulting in a Z′ > 0.5 were considered. Data shown (Figures 1D,E,F,G and 3B) were obtained from at least three independent experiments.
Data were analyzed using the GraphPad Prism 8.0.2 (GraphPad Software, LaJolla, CA). Statistically significant differences in the initial slope of the curves were evaluated through ordinary one-way ANOVA, and multiple comparisons were corrected with the Tukey test. […] Indicated EC50 values are the mean of at least three independent experiments ± standard error of the mean (SEM).

Kv7.2/Kv7.3 channels [4] = molecular target: T1, Kv7.2/Kv7.3 channels; design: expressed in transfected cells; conditions: cited from earlier work
PTZ-induced seizures = assay: Pentylenetetrazol (PTZ)-induced acute seizures in mice; type: in vivo, C57Bl/6 mice; conditions: XE991 alone, 3 mg/kg i.p.
Method: A subcutaneous (s.c.) injection of 100 mg/kg PTZ in mice is able to trigger convulsive behavior whose intensity can be assessed and quantified according to the revised Lüttjohann’s scale (see Materials and Methods),[40] using a 9-point severity score ranging from 0 (whisker trembling) to 8 (wild jumping). For each animal, the maximal severity score (Figure 5A) and the time latency required to reach such values (Figure 5B) were recorded.
Food and water were available ad libitum. Animals were experimentally naive and were used only once.
Thus, each dose was dissolved to allow injection of 0.01 mL/g, i.p. The control group was represented by mice injected only with vehicle solution (saline containing 2% Tween-20 and 2% PEG-400).
PTZ was injected, and animals were placed in clear Plexiglass boxes for observation of seizure activity. The severity of convulsions (from minimal “clonic” to maximal “generalized tonic–clonic”) as well as the latency to onset of maximal seizure was recorded.
0 = whisker trembling, 1 = sudden behavioral arrest, 2 = facial jerking, 3 = neck jerks, 4 = clonic seizures (sitting), 5 = tonic clonic seizures (lying on belly), 6 = clonic seizures (lying on side), 7 = tonic clonic seizures (lying on side), 8 = wild jumping. The behavioral assessments described above were performed in a blind manner and the observers had to reach a unanimous agreement regarding the scoring of the behavior.
The number of animals needed for the experiment was determined using the power analysis software GPower version 3.1.92. The required minimum sample size was 8 mice per group. Statistical analyses were performed using GraphPad Prism (GraphPad Software, LaJolla, CA) using a one-way analysis of variance with the Tukey post-hoc test. The P value of <0.05 was accepted as indicative of a statistically significant difference.

Kv7.2/Kv7.3 channels [5] = molecular target: T1, Kv7.2/Kv7.3 channels; assay: Whole-cell patch-clamp electrophysiology in CHO cells expressing Kv7.2/Kv7.3; type: cell-based; design: expressed in transfected cells; host or cells: CHO cells, transient transfection (pcDNA3.1, Lipofectamine 2000); conditions: for EC50: dose-response 0.01–30 μM
Method: Channel subunits were expressed in Chinese hamster ovary (CHO) cells by transient transfection, using plasmids containing cDNAs encoding human Kv7.2 and/or Kv7.3, all cloned in the pcDNA3.1 vector. According to the experimental protocol, these plasmids were expressed individually or in combination, together with a plasmid-expressing enhanced green fluorescent protein (Clontech, Palo Alto, CA) used as a transfection marker. Total cDNA in the transfection mixture was kept at 4 μg. CHO cells were grown in 100 mm plastic Petri dishes in Dulbecco’s modified Eagle’s medium containing 10% fetal bovine serum, nonessential amino acids (0.1 mM), penicillin (50 U/mL), and streptomycin ([…]) in a humidified atmosphere at 37 °C with 5% CO2.
Currents from CHO cells were recorded at room temperature (20–22 °C) using the whole-cell configuration of the patch-clamp technique, with glass micropipettes of 3–5 MΩ resistance. During the recording, constant perfusion of extracellular solution was maintained. […] The pipette (intracellular) solution contained (in mM): 140 KCl, 2 MgCl2, 10 EGTA, 10 HEPES, 5 Mg^2+-ATP, at pH 7.3–7.4, with KOH. […] To evaluate the activity of each compound on Kv7.2 + Kv7.3 currents, the cells were clamped at −80 mV and conductance–voltage curves (G/V curves; activation curves) were generated by normalizing to the maximal value of the instantaneous isopotential currents at 0 mV and expressing the normalized values as a function of the preceding voltages. Data were fit to a Boltzmann distribution of the following form: y = max/[1 + exp (V1/2 – V)/k], where V is the test potential, V1/2 is the half-activation potential, and k is the slope factor.
Indicated EC50 values are the mean of at least three independent experiments ± standard error of the mean (SEM).
Statistically significant differences in electrophysiological data were evaluated with the Student t test or with ANOVA followed by the Student–Newman–Keuls test when multiple groups were compared, with the threshold set at p < 0.05. […] Values are expressed as the […] mean ± standard error of the mean (SEM) of at least three cells recorded in at least three independent transfections.

| SMILES | % Degradation (3h, UV) [1] | Dimers Formation [1] | Photodegradation (in words) [1] | Kv7 opening activity (in words) (Kv7.2/Kv7.3 channels [3]) | Slope of the fluorescent signal at 10 μM (Kv7.2/Kv7.3 channels [3]) | also measured |
| --- | --- | --- | --- | --- | --- | --- |
| CN(Cc1ccc(C(F)(F)F)cc1)c1ccc(NC(=O)CC(C)(C)C)c(N)c1 [compound 26, N-(2-Amino-4-(methyl(4-(trifluoromethyl)benzyl)amino)phenyl)-3,3-dimethylbutanamide] | 99.5±0.1% | did not form dimers and No | underwent extensive photodegradation | improved agonist activity; also recorded: higher than that of retigabine | 0.0721±0.0034 | Phase I turnover metabolism [2]: 32.1 ± 1.2%; Phase II turnover metabolism [2]: 32.7 ± 0.3% |
| CCCCCCC(=O)Nc1ccc(N(C)Cc2ccc(C(F)(F)F)cc2)cc1N [compound 25, N-(2-Amino-4-(methyl(4-(trifluoromethyl)benzyl)amino)phenyl)heptanamide] | 63.3±2.8% | did not form dimers and No | underwent extensive photodegradation | improved agonist activity; also recorded: higher than that of retigabine | 0.0637±0.0033 | Phase I turnover metabolism [2]: 20.6 ± 1.4%; Phase II turnover metabolism [2]: 33.2 ± 1.0% |
| Nc1cc(NCc2ccc(C(F)(F)F)cc2)ccc1NC(=O)CCC1CCCCC1 [compound 19, N-(2-Amino-4-((4-(trifluoromethyl)benzyl)amino)phenyl)-3-cyclohexylpropanamide] | 64.8 ± 0.9% | Yes |  |  | 0.0452±0.0077 |  |
| CC(C)(C)CC(=O)Nc1ccc(NCc2ccc(C(F)(F)F)cc2)cc1N1CCCC1 [compound 23, 3,3-Dimethyl-n-(2-(pyrrolidin-1-yl)-4-((4-(trifluoromethyl)benzyl)amino)phenyl)butanamide] | 97.7± 1.0% | inability of compounds 23 and 24 to form dimers and No | enhanced degradation when compared to retigabine | comparable to that of the reference compound 17 | 0.0772±0.0036 |  |
| CCOC(=O)Nc1ccc(NCc2ccc(F)cc2)c(F)c1N [SF0034] |  |  |  |  |  | Potency relative to retigabine in activating Kv7.2/Kv7.3 channels in vitro (Kv7.2/Kv7.3 channels [4]): five times more potent than retigabine |
| CCCCCCC(=O)Nc1ccc(NCc2ccc(C(F)(F)F)cc2)cc1N [compound 13, N-(2-Amino-4-((4-(trifluoromethyl)benzyl)amino)phenyl)heptanamide] | 30.6 ± 2.2% | Yes |  |  | 0.0443±0.0049 |  |
| O=C1c2ccccc2C(Cc2ccncc2)(Cc2ccncc2)c2ccccc21 [XE991, reference compound] |  |  |  |  |  | Effect on seizure severity score or latency (PTZ-induced seizures): did not affect; Effect on retigabine-induced increase of maximal fluorescence and initial slope (Kv7.2/Kv7.3 channels [3]; 10 μM XE991 with retigabine): abolished |
| CCOC(=O)Nc1ccc(NCc2ccc(C(F)(F)F)cc2)c(F)c1N [RL-81] |  |  |  |  | 0.0272±0.0014 | EC50 (Kv7.2/Kv7.3 channels [3]; FluxOR dose-response, slope parameter, read-out: EC50 (initial slope of the fluorescence signal)): 4000 ± 1000 nM; Potency relative to retigabine as a Kv7 activator in vitro (Kv7.2/Kv7.3 channels [4]): > 15 times; Leftward shift in V1/2 (ΔV1/2) (Kv7.2/Kv7.3 channels [5]; 1 μM): about 40 mV; Idrug/Icontrol (maximal current density) (Kv7.2/Kv7.3 channels [5]; calculated at +20 mV): 1.6 ± 0.2; EC50 (Kv7.2/Kv7.3 channels [5]; current at +20 mV, read-out: Maximal currents EC50): 270 ± 40 nM; EC50 (Kv7.2/Kv7.3 channels [5]; read-out: ΔV1/2 EC50): 240 ± 60 nM; Potency over retigabine as Kv7.2/Kv7.3 activator (fold/times) (Kv7.2/Kv7.3 channels [5]; from ΔV1/2 EC50): 10 |
